According to paper PMC11945486, “TAS1R2/TAS1R3 Single-Nucleotide Polymorphisms Affect Sweet Taste Receptor Activation by Sweeteners: The SWEET Project” (Nutrients, 2025):
Read-outs that look alike come from different tables or passages of the source. No end group written: not given here.

T1: human TAS1R2-WT/TAS1R3-A735T (Homo sapiens, UniProt Q7RTX0+Q8TE23, A735T)
T1 construct: expressed in transfected cells; host or cells: HEK293T stably expressing Gα16gust44
T1 sequence (Q8TE23 20-839): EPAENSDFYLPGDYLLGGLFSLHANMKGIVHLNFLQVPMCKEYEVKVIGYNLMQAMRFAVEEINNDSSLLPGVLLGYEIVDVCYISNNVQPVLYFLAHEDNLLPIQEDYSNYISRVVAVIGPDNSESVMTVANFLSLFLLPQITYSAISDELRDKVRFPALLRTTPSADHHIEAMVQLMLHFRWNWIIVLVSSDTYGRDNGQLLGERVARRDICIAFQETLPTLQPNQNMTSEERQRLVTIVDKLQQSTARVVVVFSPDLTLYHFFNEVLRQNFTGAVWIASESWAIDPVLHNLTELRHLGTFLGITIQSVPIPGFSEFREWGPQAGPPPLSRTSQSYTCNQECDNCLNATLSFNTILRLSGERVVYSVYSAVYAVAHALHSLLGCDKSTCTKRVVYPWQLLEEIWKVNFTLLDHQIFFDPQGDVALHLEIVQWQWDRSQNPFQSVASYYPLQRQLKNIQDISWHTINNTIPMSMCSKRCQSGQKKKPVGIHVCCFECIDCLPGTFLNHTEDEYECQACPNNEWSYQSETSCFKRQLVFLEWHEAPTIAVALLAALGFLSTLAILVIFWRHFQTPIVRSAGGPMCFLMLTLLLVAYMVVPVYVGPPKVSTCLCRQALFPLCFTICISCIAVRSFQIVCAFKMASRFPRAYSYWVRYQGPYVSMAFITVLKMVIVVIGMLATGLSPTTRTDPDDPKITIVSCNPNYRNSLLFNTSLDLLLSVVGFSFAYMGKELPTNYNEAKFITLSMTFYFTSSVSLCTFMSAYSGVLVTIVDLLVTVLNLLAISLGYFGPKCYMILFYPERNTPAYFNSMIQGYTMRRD
T1 sequence (Q7RTX0 21-852 A735T): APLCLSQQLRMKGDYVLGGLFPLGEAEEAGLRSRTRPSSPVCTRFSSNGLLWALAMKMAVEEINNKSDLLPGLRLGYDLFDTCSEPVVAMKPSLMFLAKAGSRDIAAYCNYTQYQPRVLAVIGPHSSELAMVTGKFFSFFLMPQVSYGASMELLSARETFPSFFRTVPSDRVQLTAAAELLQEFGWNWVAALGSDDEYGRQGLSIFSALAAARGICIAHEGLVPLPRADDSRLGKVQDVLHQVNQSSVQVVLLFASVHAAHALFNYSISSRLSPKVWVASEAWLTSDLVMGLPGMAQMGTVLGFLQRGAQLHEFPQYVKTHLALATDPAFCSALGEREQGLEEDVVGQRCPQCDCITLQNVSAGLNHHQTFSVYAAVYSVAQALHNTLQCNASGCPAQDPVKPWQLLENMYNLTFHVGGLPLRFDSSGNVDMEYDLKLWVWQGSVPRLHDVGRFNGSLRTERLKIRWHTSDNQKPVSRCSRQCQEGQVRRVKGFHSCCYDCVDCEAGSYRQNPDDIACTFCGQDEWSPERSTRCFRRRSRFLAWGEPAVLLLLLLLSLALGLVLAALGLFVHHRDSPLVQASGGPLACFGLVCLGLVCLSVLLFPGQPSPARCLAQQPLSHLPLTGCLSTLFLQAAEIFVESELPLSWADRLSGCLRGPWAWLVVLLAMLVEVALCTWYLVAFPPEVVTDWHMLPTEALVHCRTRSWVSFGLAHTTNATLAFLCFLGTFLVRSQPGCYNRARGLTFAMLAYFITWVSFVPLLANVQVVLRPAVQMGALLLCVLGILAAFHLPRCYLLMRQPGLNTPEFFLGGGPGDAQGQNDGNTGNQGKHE


Molecular target: T1, human TAS1R2-WT/TAS1R3-A735T
Assay: Calcium mobilisation assay, TAS1R2-WT with TAS1R3 variant A735T
Assay type: cell-based
Conditions: for Max ΔF/F0: maximal signal amplitude
From the text: The coding sequences for TAS1R2 and TAS1R3 were commercially synthesised, and the human codon was optimised for expression in human cells. The coding sequences of human TAS1R2 and TAS1R3 were subcloned and inserted into the mammalian expression vectors pcDNA6/myc-HisA and pcDNA4/myc-HisA (Invitrogen; Thermo Fisher Scientific; Illkirch, France) between the EcoRI and NotI restriction sites, generating the plasmids pcDNA6-TAS1R2 and pcDNA4-TAS1R3, respectively. To increase protein expression in mammalian cells, an upstream start codon was used, which was a sequence called MAX, corresponding to the QBI SP163 element also described in pcDNA4-HisMax (Invitrogen; Thermo Fisher Scientific; Illkirch, France). To measure the expression level of the receptor by immunohistochemistry, we used the FLAG sequence ([…]) in the C-terminal position, which encodes the FLAG tag epitope. SNP variants of TAS1R2 and TAS1R3 were constructed based on […], respectively, using site-directed mutagenesis (Genewiz; Leipzig, Germany).
The HEK293T cells were kindly provided by Jay P. Slack (Givaudan Flavors Corporation; Cincinnati, OH, USA). HEK293T cells stably transfected with Gα16gust44 [43, 67] were seeded in poly-D-lysine-coated clear-bottom black 96-well plates (0.35 × 10^5 cells/well) in high-glucose DMEM supplemented with 2 mM GlutaMAX, 10% dialysed foetal bovine serum with penicillin/streptomycin and G418 (400 μg/mL) at 37 °C and 6.3% CO2 in a humidified atmosphere as previously reported. […] As a negative control, HEK293T cells were mock-transfected with the empty expression vector. After a further 24 h of incubation, the HEK293T cells were washed with C1 buffer (130 mM NaCl, 5 mM KCl, 10 mM HEPES pH 7.4 and 2 mM CaCl2). The 96-well plates containing the cells were then stimulated with sweet-tasting compounds. […] Different concentration ranges were tested depending on the sweet compound injected. The Ca^2+ changes were expressed as fractional changes in fluorescent light intensity: ΔF/F = (F − F0)/F0, where F was the fluorescent light intensity at each point, and F0 was the value of emitted fluorescent light prior to stimulus application. To calculate dose–response relationships, the changes in fluorescence upon stimulus application were averaged, mock-subtracted and baseline-corrected. The dose–response data obtained were adjusted using a 4-parameter logistic equation. The half-maximal effective concentrations (EC50 values) and maximal signal amplitudes were calculated using SigmaPlot software (version 15.0) (Systat Software; San Jose, CA, USA).
For in vitro calcium mobilisation assay performed on hTAS1R2-SNPs, hTAS1R3-SNPs and mTAS1R3-I60T, 6 to 7 concentrations were tested for each sweet compound, plus buffer alone. All concentration–receptor combinations were measured in duplicate, and each experiment was repeated at least 4 times (8 wells/concentration). Results were expressed for each concentration as ΔF/F mean ± SEM and represented as dose–response curves.

Row | Molecule | R1 = Variant EC50/WT EC50 | Max ΔF/F0 | EC50 (read-out: EC50) | EC50 (brazzein)
1 | C=C(C)[C@@H]1CC=C(/C=N/O)CC1 [Perillartine, perillartine] | 0.9 | 1.56 ± 0.23 | 12.6 ± 5.9 µM | –
2 | O=S(=O)(O)NC1CCCCC1 [Cyclamate, cyclamate] | – | – | 1870 ± 32 µM | –
3 | C=C1C[C@@]23CC[C@H]4[C@@](C)(CCC[C@@]4(C)C(=O)O[C@@H]4O[C@H](CO)[C@@H](O)[C@H](O[C@@H]5O[C@H](CO)[C@@H](O)[C@H](O)[C@H]5O)[C@H]4O[C@@H]4O[C@H](CO)[C@@H](O)[C@H](O)[C@H]4O)[C@@H]2CC[C@]1(O[C@@H]1O[C@H](CO)[C@@H](O)[C@H](O[C@@H]2O[C@H](CO)[C@@H](O)[C@H](O)[C@H]2O)[C@H]1O[C@@H]1O[C@H](CO)[C@@H](O)[C@H](O)[C@H]1O)C3 [Rebaudioside M, rebaudioside M] | 0.6 | 1.24 ± 0.04 | 23 ± 1.9 µM | –
4 | OC[C@H]1O[C@H](O[C@]2(CCl)O[C@H](CCl)[C@@H](O)[C@@H]2O)[C@H](O)[C@@H](O)[C@H]1Cl [Sucralose] | 1.4 | 0.70 ± 0.01 | 151 ± 4 µM | –
5 | CC1=CC(=O)NS(=O)(=O)O1 [Acesulfame K, acesulfame K] | 1.1 | 0.47 ± 0.02 | 685 ± 56 µM | –
6 | brazzein (QDKCKKVYENYPVSKCQLANQCNYDCKLDKHARSGECFYDEKRNLQCICDYCEY; ends and bridges not checked; cysteine pairing not given here; UniProt P56552 1-54, looked up) [sweet-tasting protein obtained by recombinant production using the yeast Pichia pastoris] | 0.7 | 0.90 ± 0.05 | – | 82.7 ± 14.9 µg/mL
7 | thaumatin | 0.7 | 0.70 ± 0.06 | – | –
8 | COC(=O)[C@H](Cc1ccccc1)NC(=O)[C@H](CC(=O)O)NCCC(C)(C)C [Neotame] | 0.8 | 0.61 ± 0.02 | 0.93 ± 0.07 µM | –
9 | C[C@H](CC[C@@H](O[C@@H]1O[C@H](CO[C@@H]2O[C@H](CO)[C@@H](O)[C@H](O)[C@H]2O)[C@@H](O)[C@H](O)[C@H]1O[C@@H]1O[C@H](CO)[C@@H](O)[C@H](O)[C@H]1O)C(C)(C)O)[C@H]1CC[C@@]2(C)[C@@H]3CC=C4[C@@H](CC[C@H](O[C@@H]5O[C@H](CO[C@@H]6O[C@H](CO)[C@@H](O)[C@H](O)[C@H]6O)[C@@H](O)[C@H](O)[C@H]5O)C4(C)C)[C@]3(C)[C@H](O)C[C@]12C [Mogroside V, mogroside V] | 0.9 | 1.17 ± 0.03 | 28.7 ± 2.2 µM | –
10 | COc1ccc(CCC(=O)c2c(O)cc(O[C@@H]3O[C@H](CO)[C@@H](O)[C@H](O)[C@H]3O[C@@H]3O[C@@H](C)[C@H](O)[C@@H](O)[C@H]3O)cc2O)cc1O [NHDC, neohesperidin dihydrochalcone] | 0.8 | 1.00 ± 0.01 | 42.2 ± 1.4 µM | –
11 | thaumatin (protein, Eight disulfides, sweet-tasting plant protein, E957) ATFEIVNRCSYTVWAAASKGDAALDAGGRQLNSGESWTINVEPGTKGGKIWARTDCYFDDSGSGICKTGDCGGLLRCKRFGRPPTTLAEFSLNQYGKDYIDISNIKGFNVPMDFSPTTRGCRGVRCAADIVGQCPAKLKAPGGGCNDACTVFQTSEYCCTTGKCGPTEYSRFFKRLCPDAFSYVLDKPTTVTCPGSSNYRVTFCPTA | – | – | 7.2 ± 1.5 µM | –
